According to patent publication US20170100383A1, “TOPICAL FORMULATIONS FOR PREVENTING SKIN INFECTION” (Practical Solution, Inc., priority 2015, published 2017):
Where two headings read alike, the source gives them in different places.

Assays:
Type in all cases: cell-based
Conditions in all cases: 48 h
[1] = tested on: Staphylococcus aureus ATCC6538; test: Broth microdilution inhibitory rate (MIC assay) against Staphylococcus aureus
Experimental: (§1) Staphyloccocus aureus strain ATCC 6538, Bacillus subtilis ATCC9372 or Candida albicans ATCC10231 each (0.1 ml of a bacterial suspension having 10^8 cfu/ml bacteria) were inoculated into the mixture. […] Test tubes containing the mixtures were placed in a 37° C. incubator and incubated for 48 hours. The concentration of bacterial cells in each test tube was measured. The inhibitory rates were calculated as below:
(§2) [(Positive control average colony count−Test average colony count)/Positive control average colony count]×100%
(§3) Positive controls are the tubes having broth and microorganisms but no antimicrobial agents.

[2] = tested on: Bacillus subtilis ATCC9372
Experimental: as §1, §2, §3

[3] = tested on: Candida albicans ATCC10231; test: Broth microdilution inhibitory rate (MIC assay) against Candida albicans
Experimental: as §1, §2, §3

[4] = dilution 1* of initial concentration (CHG 5 g/L, CPC 0.5 g/L), 37° C.
[5] = dilution 1/10 of initial concentration (CHG 5 g/L, CPC 0.5 g/L)
[6] = dilution 1/100 of initial concentration (CHG 5 g/L, CPC 0.5 g/L)
[7] = dilution 1/1000 of initial concentration (CHG 5 g/L, CPC 0.5 g/L)
[8] = dilution 1/2000 of initial concentration (CHG 5 g/L, CPC 0.5 g/L)
[9] = dilution 1/4000 of initial concentration (CHG 5 g/L, CPC 0.5 g/L)
[10] = dilution 1/8000 of initial concentration (CHG 5 g/L, CPC 0.5 g/L)

`N=C(NCCCCCCNC(=N)NC(=N)Nc1ccc(Cl)cc1)NC(=N)Nc1ccc(Cl)cc1.O=C(O)[C@H](O)[C@@H](O)[C@H](O)[C@H](O)CO.O=C(O)[C@H](O)[C@@H](O)[C@H](O)[C@H](O)CO` [CHG, chlorhexidine digluconate] was tested, and the “Anti-microbial activity (inhibitory rate)” value [1, 4] was 100%, the “Anti-microbial activity (inhibitory rate)” value [1, 5] was 100% and the “Anti-microbial activity (inhibitory rate)” value [1, 6] was 100%. For the same compound, the “Anti-microbial activity (inhibitory rate)” value [1, 7] was 100%, the “Anti-microbial activity (inhibitory rate)” value [1, 8] was 100% and the “Anti-microbial activity (inhibitory rate)” value [1, 9] was 100%. The “Anti-microbial activity (inhibitory rate)” value [1, 10] was 78.43%, the “Anti-microbial activity (inhibitory rate)” value [2, 4] was 100% and the “Anti-microbial activity (inhibitory rate)” value [2, 5] was 100%. For the same compound, the “Anti-microbial activity (inhibitory rate)” value [2, 6] was 100%, the “Anti-microbial activity (inhibitory rate)” value [2, 7] was 100% and the “Anti-microbial activity (inhibitory rate)” value [2, 8] was 100%. For the same compound, the “Anti-microbial activity (inhibitory rate)” value [2, 9] was 100%, the “Anti-microbial activity (inhibitory rate)” value [2, 10] was 99.99% and the “Anti-microbial activity (inhibitory rate)” value ([2]; dilution 1/16000 of initial concentration (CHG 5 g/L, CPC 0.5 g/L)) was 99.50%. For the same compound, the “Anti-microbial activity (inhibitory rate)” value ([2]; dilution 1/32000 of initial concentration (CHG 5 g/L, CPC 0.5 g/L)) was 90.83%, the “Anti-microbial activity (inhibitory rate)” value [3, 4] was 100% and the “Anti-microbial activity (inhibitory rate)” value [3, 5] was 100%. The “Anti-microbial activity (inhibitory rate)” value [3, 6] was 100%, the “Anti-microbial activity (inhibitory rate)” value [3, 7] was 97.76% and the “Anti-microbial activity (inhibitory rate)” value [3, 8] was 93.92%. For the same compound, the “Anti-microbial activity (inhibitory rate)” value [3, 9] was 90.41%.
